In patent US6590118B1, “Aromatic compounds” (Novo Nordisk A/S, priority 1999, dated 2003) one finds melting point data, which are given here for eleven compounds.

Structures are written as SMILES.

The compound `O=C(Nc1ccc(Oc2ccc(C(=O)O)c(C(=O)O)c2)cc1)c1cccc([N+](=O)[O-])c1` [Compound 123, 4-[4-(3-Nitrobenzoylamino)phenoxy]phthalic acid] had a melting point of 225 to 227 °C.

`O=C(Cc1ccc(O)c([N+](=O)[O-])c1)Nc1ccccc1Oc1ccc(C(=O)O)c(C(=O)O)c1` [Compound 174, 4-{2-[2-(4-Hydroxy-3-nitrophenyl)-acetylamino]phenoxy}phthalic acid] showed a melting point of 187.8 to 189.9 °C.

Compound `COC(=O)c1ccc(C(=O)c2ccccc2NC(=O)c2cccc([N+](=O)[O-])c2)cc1C(=O)OC` [Compound 115, 4-[2-(3-Nitrobenzoylamino)benzoyl]phthalic acid dimethyl ester] came in with a melting point of 133 to 137 °C.

`COC(=O)c1ccc(C(=O)c2ccc(NC(=O)c3cccc([N+](=O)[O-])c3)cc2)cc1C(=O)OC` [Compound 114, 4-[4-(3-Nitrobenzoylamino)benzoyl]phthalic acid dimethyl ester] showed a melting point of 144 to 146 °C.

`O=C(Nc1ccccc1Sc1ccc(C(=O)O)c(C(=O)O)c1)c1cccc([N+](=O)[O-])c1` [Compound 125, 4-[2-(3-Nitrobenzoylamino)phenylsulphenyl]phthalic acid] had a melting point of 172.8 to 173.9 °C.

The compound `N#Cc1ccc(Oc2ccccc2NC(=O)c2cccc([N+](=O)[O-])c2)cc1C#N` [Compound 176, N-[2-(3,4-Dicyanophenoxy)phenyl]-3-nitrobenzamide] came in with a melting point of 176.5 to 178.1 °C.

`O=C(O)c1ccc(Oc2ccccc2NC(=O)c2cccc([N+](=O)[O-])c2)c(C(=O)O)c1` [Compound 122, 4-[2-(3-Nitrobenzoylamino)phenoxy]isophthalic acid] came in with a melting point of 255 to 257 °C.

Take `CC(=O)Nc1ccccc1Oc1ccc(C#N)c(C#N)c1` [Compound 94, N-[2-(3,4-Dicyanophenoxy)phenyl]acetamide]: the melting point lay in the range of 152.2 to 153.7 °C.

`O=C(O)c1cc(Oc2ccccc2NC(=O)c2cccc([N+](=O)[O-])c2)cc(C(=O)O)c1` [Compound 121, 5-[2-(3-Nitrobenzoylamino)phenoxy]isophthalic acid] yielded a melting point of 184 to 190 °C.

As to `O=C(O)c1cccc(NC(=O)c2ccccc2Oc2ccc(C(=O)O)c(C(=O)O)c2)c1` [Compound 134, 4-[2-(3-Carboxyphenylcarbamoyl)phenoxy]phthalic acid], the melting point was in the range of 202 to 208 °C.

Turning to `O=C(Cc1cc([N+](=O)[O-])ccc1Cl)Nc1ccccc1Oc1ccc(C(=O)O)c(C(=O)O)c1` [Compound 175, 4-{2-[2-(2-Chloro-5-nitrophenyl)acetylamino]phenoxy}phthalic acid], the melting point was in the range of 176 to 178.2 °C.

Usually melting point stands for the temperature, or range, at which the solid turns liquid.
